According to US6313096A, “Inhibitors of trypsin-like enzymes” (Trigen Limited, priority 2000, dated 2001):

Key:
[1] = molecular target: T1, thrombin (Homo sapiens, UniProt P00734); conditions: reversible and irreversible inhibitors of thrombin; cited from earlier work
[2] = molecular target: T1, thrombin; test: thrombin time determination; assay type: biochemical
Experimental: The activity of the product as a thrombin inhibitor is measured by determination of the thrombin time essentially as described in European Patent Application 293 881, page 51. Using a 1 micromolar concentration of inhibitor, a mean thrombin time of 114 seconds is found, compared with 16 seconds in the absence of inhibitor.

thrombin inhibitor (in words) [2] | mean thrombin time ([2]; 1 micromolar concentration of inhibitor, 16 seconds in the absence of inhibitor) | Molecule | inhibition in vitro [1]
– | – | NC(N)=NCCC[C@H](NC(=O)[C@@H]1CCCN1C(=O)[C@H](N)Cc1ccccc1)C(=O)CCl [D-Phe-Pro-Arg-CH2 Cl] | ~10^-8 M
strong thrombin inhibitor | 114 s | Z-D-Phe-Pro-BOMe-OPin [formula XII] | –
– | – | N=C(N)NCCC[C@@H](C=O)NC(=O)[C@@H]1CCCN1C(=O)[C@H](N)Cc1ccccc1 [D-Phe-Pro-Arginal] | ~10^-8 M
